System: O=NOO- derived from the reaction of NO· with O2·-
Assay: Formation of peroxynitrite from reaction of NO radical with superoxide
Details: in vitro and in vivo condition
Excerpt: Ascorbate is a typical scavenger of O2·^− and thus could inhibit the production of O═NOO^−. […] Based on this discovery, an administration of a great amount of arginine combined with ascorbic acid in an amount 1/5 times and more, for example from 1/5 to 20 times, especially from 1.5 to 20 times the amount of the arginine can be expected to prevent peroxidative injuries of cells caused by the ion, O═NOO^−. Therefore, the present invention also includes the following embodiments.

With `O=C1O[C@H]([C@@H](O)CO)C(O)=C1O` [ascorbic acid, L-ascorbic acid] as the molecule, how does the “Formation of O=NOO- (peroxynitrite)” value read?
The value was “retards formation”.

— patent US7214709B2, “Arginine/ascorbic acid mixed powder as an oral supplement” (priority 2000, dated 2007)
